The values that follow come from patent US11952349B2, “Anti-cancer nuclear hormone receptor-targeting compounds” (Nuvation Bio Inc., priority 2019, dated 2024).

Assay [1] has as its target T1, Progesterone PR-B receptors from human breast carcinoma T47D cells (Homo sapiens, UniProt P06401).
T1 construct: endogenous in cells; host or cells: T47D human breast carcinoma cells (cell supernatant)
T1 sequence (P06401 1-933): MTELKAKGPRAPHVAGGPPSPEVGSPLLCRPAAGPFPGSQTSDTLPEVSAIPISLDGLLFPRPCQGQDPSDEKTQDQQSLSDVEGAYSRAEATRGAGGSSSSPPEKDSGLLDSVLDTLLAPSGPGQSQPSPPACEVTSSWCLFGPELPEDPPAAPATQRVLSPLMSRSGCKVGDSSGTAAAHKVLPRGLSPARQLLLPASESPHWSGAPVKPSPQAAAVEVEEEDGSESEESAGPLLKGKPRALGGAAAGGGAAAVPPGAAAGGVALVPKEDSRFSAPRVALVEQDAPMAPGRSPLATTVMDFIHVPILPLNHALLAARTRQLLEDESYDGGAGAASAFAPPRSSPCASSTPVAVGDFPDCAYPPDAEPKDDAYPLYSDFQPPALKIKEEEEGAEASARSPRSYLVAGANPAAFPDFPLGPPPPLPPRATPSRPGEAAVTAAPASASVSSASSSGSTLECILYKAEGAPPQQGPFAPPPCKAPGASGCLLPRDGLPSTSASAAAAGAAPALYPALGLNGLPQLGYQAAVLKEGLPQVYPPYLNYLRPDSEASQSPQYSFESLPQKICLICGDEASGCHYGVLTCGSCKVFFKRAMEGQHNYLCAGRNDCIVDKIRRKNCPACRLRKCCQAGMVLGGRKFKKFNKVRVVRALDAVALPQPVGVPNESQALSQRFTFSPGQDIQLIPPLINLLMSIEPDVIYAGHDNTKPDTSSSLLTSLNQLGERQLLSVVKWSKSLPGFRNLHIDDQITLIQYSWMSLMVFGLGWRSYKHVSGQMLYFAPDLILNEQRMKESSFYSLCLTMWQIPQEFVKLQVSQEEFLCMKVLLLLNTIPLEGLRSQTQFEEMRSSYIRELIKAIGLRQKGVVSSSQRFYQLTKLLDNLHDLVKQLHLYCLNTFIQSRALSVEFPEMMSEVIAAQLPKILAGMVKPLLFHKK
The assay is described as follows: PR binding assay, [3H]Progesterone. The note with it: Table 8; 0.5 nM [3H]Progesterone. As to the method:
PR binding assay: Progesterone PR-B receptors from human breast carcinoma T47D cells are used in modified Na2HPO4/NaH2PO4 buffer pH 7.4. Compounds were screened at a range of doses (Top dose 40 nM, 4 fold serial dilution, 8 point dose response) and were dispensed into the assay plate. Supernatant of 1.2×10^5 cells aliquot was added to the assay plate and was incubated with 0.5 nM [^3H]Progesterone for 20 hours at 4° C. Membranes are filtered and washed, the filters are then counted to determine [^3H]Progesterone specifically bound. Binding IC50 was determined as the concentration where 50% inhibition of radioligand binding was observed.

The target of assay [2] is T2, ligand binding domain of the glucocorticoid receptor (Homo sapiens, UniProt P04150).
T2 construct: expressed in transfected cells
T2 sequence (P04150 524-758 limits assumed): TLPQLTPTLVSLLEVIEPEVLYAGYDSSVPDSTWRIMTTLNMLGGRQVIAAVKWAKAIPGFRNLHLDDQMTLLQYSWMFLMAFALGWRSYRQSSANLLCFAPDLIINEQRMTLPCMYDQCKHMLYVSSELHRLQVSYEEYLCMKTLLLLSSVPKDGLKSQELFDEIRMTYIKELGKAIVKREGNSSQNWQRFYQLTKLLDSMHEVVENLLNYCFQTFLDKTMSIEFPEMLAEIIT
The assay can be described thus: GR antagonism assay (HEK293, dexamethasone 1.5 nM, Dual-glo). Type of assay: cell-based. The note with it: Table 8. As to the method:
GR antagonism assay: To evaluate GR antagonist activity, test compound was added to the assay plate (top dose 5 μM, 4 fold serial dilution, 8 point dose response). HEK293 cells stably expressing the ligand binding domain of the glucocorticoid receptor were seeded at a density of 40000 cells/well in the assay plate. The assay plate was then incubated at 37° C., 5% CO2 for 30 minutes. Dexamethasone was added to the assay plate at 1.5 nM final concentration and the assay plate was incubated at 37° C., 5% CO2 for 20 h. After the incubation period, Dual-glo luciferase reagent was added to the assay plate and mixed at room temperature for 20 minutes on an orbital shaker, before reading out on the EnVision plate reader.

Assay [3] relates to T47D cells. The assay is described as follows: Cell viability assay (CellTiterGlo, 6 days) T47D. Type of assay: cell-based. As to conditions: Homo sapiens, 144 h, Table 8. Here is the method: (§1) Cell viability assay: LNCap, 22Rv1, and T47D cells were seeded at a density of 1500-2000 cells/well in 96 well plates, and a ‘T0’ (timepoint 0) was included along with the assay plate. The plates were then incubated at 37° C., 5% CO2 in a cell culture incubator overnight. On the next day, the ‘T0’ plate was assayed using CellTiterGlo (Promega, Inc) according to the manufacturer's instructions. The appropriate compounds were diluted in DMSO and added to the assay plate (final DMSO concentration of 0.2%) on the next day. The assay plates were incubated for 6 days at 37° C., 5% CO2. After the incubation period, the plates were assayed using CellTiterGlo (Promega, Inc) according to the manufacturer's instructions and luminescence was read on the EnVision plate reader. Inhibition the tested compounds was determined by the following formula: Inhibition rate (%)=(1−(RLU compound−RLU day0)/(RLU control−RLU day0))*100%. GraphPadPrism was used to analyze the data and determine absolute IC50 values.
Background: ATP-based viability assays read luminescence as a measure of living cells.

For assay [4], the system named is 22Rv1 cells. The assay is described as follows: Cell viability assay (CellTiterGlo, 6 days) 22Rv1. The note with it: Homo sapiens, 22Rv1, 144 h; Table 7; cell viability, 6 days; read-out: 22RV1. The class given is cell-based. Here is the method:
as §1

For the molecule `C[C@]12CC[C@H]3[C@@H](CCC4=CC(=O)CC[C@@]43C)[C@@H]1CC[C@@H]2C(=O)COCCCCCC(=O)N1CCN(C(=O)c2cc(Cc3n[nH]c(=O)c4ccccc34)ccc2F)CC1` [Compound 1386, 4-(3-(4-(6-(2-((8S,9S,10R,13S,14S,17S)-10,13-dimethyl-3-oxo-2,3,6,7,8,9,10,11,12,13,14,15,16,17-tetradecahydro-1H-cyclopenta[a]phenanthren-17-yl)-2-oxoethoxy)hexanoyl)piperazine-1-carbonyl)-4-fluorobenzyl)phthalazin-1(2H)-one], the IC50 was 10 to 100 nM in assay [1], 100 to 1000 nM in assay [2] and 100 to 1000 nM in assay [3].
With `CC#C[C@]1(O)CC[C@H]2[C@@H]3CCC4=CC(=O)CCC4=C3[C@@H](c3ccc(N(C)CCCCCC(=O)N4CCN(C(=O)c5cc(Cc6n[nH]c(=O)c7ccccc67)ccc5F)CC4)cc3)C[C@@]21C` [Compound 135, 4-(4-fluoro-3-(4-(6-((4-((8S,11R,13S,14S,17S)-17-hydroxy-13-methyl-3-oxo-17-(prop-1-ynyl)-2,3,6,7,8,11,12,13,14,15,16,17-dodecahydro-1H-cyclopenta[a]phenanthren-11-yl)phenyl)(methyl)amino)hexanoyl)piperazine-1-carbonyl)benzyl)phthalazin-1(2H)-one], the figures for the IC50 in assay [1], in assay [2] and in assay [3] were less than 10 nM, less than 10 nM and 100 to 1000 nM, respectively.
On to `C[C@]12C[C@H](CCCCCC(=O)N3CCN(C(=O)c4cc(Cc5n[nH]c(=O)c6ccccc56)ccc4F)CC3)C3=C4CCC(=O)C=C4CC[C@H]3[C@@H]1CCC2O` (stereo partly drawn) [Compound 138, 4-(4-fluoro-3-(4-(6-((8S,11S,13S,14S)-17-hydroxy-13-methyl-3-oxo-2,3,6,7,8,11,12,13,14,15,16,17-dodecahydro-1H-cyclopenta[a]phenanthren-11-yl)hexanoyl)piperazine-1-carbonyl)benzyl)phthalazin-1(2H)-one], for which the IC50 in assay [4] is 100 to 1000 nM.
Take `CC#C[C@]1(O)CC[C@H]2[C@@H]3CCC4=CC(=O)CCC4=C3[C@@H](c3ccc(N(C)CCCCCC(=O)NCCOCCOCC(=O)N4CCN(C(=O)c5cc(Cc6n[nH]c(=O)c7ccccc67)ccc5F)CC4)cc3)C[C@@]21C` [Compound 1429, N-(2-(2-(2-(4-(2-fluoro-5-((4-oxo-3,4-dihydrophthalazin-1-yl)methyl)benzoyl)piperazin-1-yl)-2-oxoethoxy)ethoxy)ethyl)-6-((4-((8S,11R,13S,14S,17S)-17-hydroxy-13-methyl-3-oxo-17-(prop-1-ynyl)-2,3,6,7,8,11,12,13,14,15,16,17-dodecahydro-1H-cyclopenta[a]phenanthren-11-yl)phenyl)(methyl)amino)hexanamide]: the IC50 was less than 10 nM in assay [1], 10 to 100 nM in assay [2] and greater than 10000 nM in assay [3].
With `C[C@]12Cc3cn[nH]c3C[C@@H]1CC[C@@H]1[C@@H]2CC[C@]2(C)[C@@H](OCCCCCC(=O)N3CCN(C(=O)c4cc(Cc5n[nH]c(=O)c6ccccc56)ccc4F)CC3)CC[C@@H]12` [Compound 1394, 4-(3-(4-(6-(((1S,3aS,3bR,5aS,10aS,10bS,12aS)-10a,12a-dimethyl-1,2,3,3a,3b,4,5,5a,6,7,10,10a,10b,11,12,12a-hexadecahydrocyclopenta[5,6]naphtho[1,2-f]indazol-1-yl)oxy)hexanoyl)piperazine-1-carbonyl)-4-fluorobenzyl)phthalazin-1(2H)-one], the IC50 in assay [4] was 100 to 1000 nM.
For the molecule `CC(=O)O[C@]1(C(C)=O)CC[C@H]2[C@@H]3CCC4=CC(=O)CCC4=C3[C@@H](c3ccc(N(C)CCCCCC(=O)N4CCN(C(=O)c5cc(Cc6n[nH]c(=O)c7ccccc67)ccc5F)CC4)cc3)C[C@@]21C` [Compound 1378, (8S,11R,13S,14S,17R)-17-acetyl-11-(4-((6-(4-(2-fluoro-5-((4-oxo-3,4-dihydrophthalazin-1-yl)methyl)benzoyl)piperazin-1-yl)-6-oxohexyl)(methyl)amino)phenyl)-13-methyl-3-oxo-2,3,6,7,8,11,12,13,14,15,16,17-dodecahydro-1H-cyclopenta[a]phenanthren-17-yl acetate], the IC50 in assay [1] is less than 10 nM; in assay [2], less than 10 nM; in assay [3], 100 to 1000 nM.
Consider `C[C@@]12CCC(=O)C[C@H]1CC[C@H]1[C@H]2CC[C@]2(C)[C@@H]1CC[C@H]2OCCCCCCNC(=O)c1cc(Cc2n[nH]c(=O)c3ccccc23)ccc1F` (stereo in doubt) [Compound 1426, N-(6-((5R,8S,9R,10R,13R,14R,17R)-10,13-dimethyl-3-oxohexadecahydro-1H-cyclopenta[a]phenanthren-17-yloxy)hexyl)-2-fluoro-5-((4-oxo-3,4-dihydrophthalazin-1-yl)methyl)benzamide], for which the IC50 in assay [4] was 1000 to 10000 nM.
With `CC(=O)O[C@]1(C(C)=O)CC[C@H]2[C@@H]3CCC4=CC(=O)CCC4=C3[C@@H](c3ccc(N(C)CCCCCC(=O)NCCOCCOCC(=O)N4CCN(C(=O)c5cc(Cc6n[nH]c(=O)c7ccccc67)ccc5F)CC4)cc3)C[C@@]21C` [Compound 1384, (8S,11R,13S,14S,17R)-17-acetyl-11-(4-((6-(2-(2-(2-(4-(2-fluoro-5-((4-oxo-3,4-dihydrophthalazin-1-yl)methyl)benzoyl)piperazin-1-yl)-2-oxoethoxy)ethoxy)ethylamino)-6-oxohexyl)(methyl)amino)phenyl)-13-methyl-3-oxo-2,3,6,7,8,11,12,13,14,15,16,17-dodecahydro-1H-cyclopenta[a]phenanthren-17-yl acetate], the IC50 in assay [1] was less than 10 nM; in assay [2] it was 10 to 100 nM; in assay [3], 1000 to 10000 nM.
Regarding `Cn1ncnc1C1c2n[nH]c(=O)c3cc(F)cc(c23)N[C@@H]1c1ccc(NC(=O)CCCCCO[C@@H]2CC[C@H]3[C@@H]4CC[C@H]5CCCC[C@]5(C)[C@H]4CC[C@]23C)cc1` (stereo partly drawn) [Compound 1128, 6-((5R,8R,9S,10S,13S,14S,17R)-10,13-dimethylhexadecahydro-1H-cyclopenta[a]phenanthren-17-yloxy)-N-(4-((8S)-5-fluoro-9-(1-methyl-1H-1,2,4-triazol-5-yl)-3-oxo-3,7,8,9-tetrahydro-2H-pyrido[4,3,2-de]phthalazin-8-yl)phenyl)hexanamide], in assay [4], the IC50 lay in the range of 1000 to 10000 nM.
